Measured values published in ChEMBL document CHEMBL3885881, “DrugMatrix”.

Organism: Rattus norvegicus
Assay: DrugMatrix - Regimen: Daily Repeat
Type: toxicity, organism-based, Sprague-Dawley
Parameters: regimen Daily Repeat, gender Male, age 6-8 weeks
Conditions: in vivo, ip, route intraperitoneal, vehicle 100 % SALINE; for ABSOLUTE BASOPHIL / ABSOLUTE EOSINOPHIL / ABSOLUTE LYMPHOCYTE / ABSOLUTE MONOCYTE / ABSOLUTE SEGMENTED NEUTROPHIL / BASOPHIL / EOSINOPHIL / ERYTHROCYTE COUNT / HEMATOCRIT / HEMOGLOBIN / LEUKOCYTE COUNT / LYMPHOCYTE / MEAN CORPUSCULAR HEMOGLOBIN / MEAN CORPUSCULAR HEMOGLOBIN CONCENTRATION / MEAN CORPUSCULAR VOLUME / MONOCYTE / NEUTROPHIL / PLATELET COUNT: tissue Blood
[1] = 0 mg/kg, 120 h, dose level Control, time 5 day
[2] = 0 mg/kg, 120 h, tissue Plasma, dose level Control, time 5 day
[3] = 0 mg/kg, […], dose level Control, time 14 day
[4] = 0 mg/kg, […], dose level Control, time 28 day
[5] = 0 mg/kg, […], tissue Plasma, dose level Control, time 14 day
[6] = 0 mg/kg, […], tissue Plasma, dose level Control, time 28 day

COBALTOUS CHLORIDE
ABSOLUTE BASOPHIL [1]: 32 cells/µL
ABSOLUTE EOSINOPHIL [1]: 110 cells/µL
ABSOLUTE LYMPHOCYTE [1]: 6630 cells/µL
ABSOLUTE MONOCYTE [1]: 140 cells/µL
ABSOLUTE SEGMENTED NEUTROPHIL [1]: 1170 cells/µL
BASOPHIL [1]: 0.38%
EOSINOPHIL [1]: 1.28%
ERYTHROCYTE COUNT [1]: 7.45 x10E6/uL
HEMATOCRIT [1]: 45.74%
HEMOGLOBIN [1]: 14.72 G/DL
LEUKOCYTE COUNT [1]: 8.11 x10E3/uL
LYMPHOCYTE [1]: 81.3%
MEAN CORPUSCULAR HEMOGLOBIN [1]: 19.76 pg
MEAN CORPUSCULAR HEMOGLOBIN CONCENTRATION [1]: 32.16 G/DL
MEAN CORPUSCULAR VOLUME [1]: 61.38 fL
MONOCYTE [1]: 1.76%
NEUTROPHIL [1]: 14.9%
PLATELET COUNT [1]: 1322.4 x10E3/uL
ALANINE AMINOTRANSFERASE [2]: 25.8 u/L
ALBUMIN [2]: 3.64 G/DL
ASPARTATE AMINOTRANSFERASE [2]: 81.4 u/L
BLOOD UREA NITROGEN [2]: 14.4 mg/dL
CHOLESTEROL [2]: 69.2 mg/dL
CREATINE PHOSPHOKINASE [2]: 303.2 u/L
CREATININE [2]: 0.56 mg/dL
GLUCOSE [2]: 125.4 mg/dL
LACTATE DEHYDROGENASE [2]: 105.4 u/L
LIPASE [2]: 22.4 u/L
POTASSIUM [2]: 5.52 MEQ/L
SODIUM [2]: 147 MEQ/L
TOTAL BILIRUBIN [2]: 0.2 mg/dL
TOTAL PROTEIN [2]: 6.1 G/DL
URIC ACID [2]: 1.06 mg/dL
ABSOLUTE BASOPHIL [3]: 130 cells/µL
ABSOLUTE EOSINOPHIL [3]: 140 cells/µL
ABSOLUTE LYMPHOCYTE [3]: 13500 cells/µL
ABSOLUTE MONOCYTE [3]: 400 cells/µL
ABSOLUTE SEGMENTED NEUTROPHIL [3]: 2330 cells/µL
BASOPHIL [3]: 0.72%
EOSINOPHIL [3]: 0.86%
ERYTHROCYTE COUNT [3]: 7.74 x10E6/uL
HEMATOCRIT [3]: 45.98%
LEUKOCYTE COUNT [3]: 16.61 x10E3/uL
LYMPHOCYTE [3]: 81.34%
MEAN CORPUSCULAR HEMOGLOBIN [3]: 18 pg
MEAN CORPUSCULAR HEMOGLOBIN CONCENTRATION [3]: 30.22 G/DL
MEAN CORPUSCULAR VOLUME [3]: 59.4 fL
MONOCYTE [3]: 2.46%
NEUTROPHIL [3]: 14.14%
PLATELET COUNT [3]: 1445.5 x10E3/uL
ABSOLUTE BASOPHIL [4]: 91 cells/µL
ABSOLUTE EOSINOPHIL [4]: 110 cells/µL
ABSOLUTE LYMPHOCYTE [4]: 9910 cells/µL
ABSOLUTE MONOCYTE [4]: 210 cells/µL
ABSOLUTE SEGMENTED NEUTROPHIL [4]: 1560 cells/µL
BASOPHIL [4]: 0.77%
EOSINOPHIL [4]: 0.92%
ERYTHROCYTE COUNT [4]: 8.21 x10E6/uL
HEMATOCRIT [4]: 47.53%
HEMOGLOBIN [4]: 15.65 G/DL
LEUKOCYTE COUNT [4]: 11.91 x10E3/uL
LYMPHOCYTE [4]: 83.34%
MEAN CORPUSCULAR HEMOGLOBIN [4]: 19.07 pg
MEAN CORPUSCULAR HEMOGLOBIN CONCENTRATION [4]: 32.93 G/DL
MEAN CORPUSCULAR VOLUME [4]: 57.9 fL
MONOCYTE [4]: 1.68%
NEUTROPHIL [4]: 12.97%
PLATELET COUNT [4]: 1323.8 x10E3/uL
ALANINE AMINOTRANSFERASE [5]: 31.6 u/L
ALBUMIN [5]: 3.66 G/DL
ALKALINE PHOSPHATASE [5]: 228.6 u/L
ASPARTATE AMINOTRANSFERASE [5]: 79.6 u/L
BLOOD UREA NITROGEN [5]: 11.2 mg/dL
CHLORIDE [5]: 107 MEQ/L
CHOLESTEROL [5]: 57 mg/dL
CREATININE [5]: 0.5 mg/dL
GLUCOSE [5]: 124.4 mg/dL
LACTATE DEHYDROGENASE [5]: 106.4 u/L
LIPASE [5]: 24.4 u/L
PHOSPHORUS [5]: 10.52 mg/dL
POTASSIUM [5]: 6.34 MEQ/L
SODIUM [5]: 149.2 MEQ/L
TOTAL BILIRUBIN [5]: 0.2 mg/dL
TOTAL PROTEIN [5]: 6.48 G/DL
URIC ACID [5]: 0.94 mg/dL
ALANINE AMINOTRANSFERASE [6]: 30 u/L
ALBUMIN [6]: 3.71 G/DL
ALKALINE PHOSPHATASE [6]: 186.8 u/L
ASPARTATE AMINOTRANSFERASE [6]: 78.2 u/L
BLOOD UREA NITROGEN [6]: 14.2 mg/dL
CHOLESTEROL [6]: 44.9 mg/dL
CREATINE PHOSPHOKINASE [6]: 334.3 u/L
CREATININE [6]: 0.6 mg/dL
GLUCOSE [6]: 147.2 mg/dL
LACTATE DEHYDROGENASE [6]: 123.1 u/L
LIPASE [6]: 9.6 u/L
PHOSPHORUS [6]: 10.01 mg/dL
POTASSIUM [6]: 6.57 MEQ/L
SODIUM [6]: 149.5 MEQ/L
TOTAL BILIRUBIN [6]: 0.21 mg/dL
TOTAL PROTEIN [6]: 6.66 G/DL
URIC ACID [6]: 1.26 mg/dL
ABSOLUTE BASOPHIL (10 mg/kg, 120 h, dose level High, time 5 day): 46 cells/µL
